Test results as given in the kinase profiling compilation of Christmann-Franck et al. (2016).
Where “and” joins values, the source holds several entries; their conditions need not be identical. Equal entries are not always repeated.

What was measured:
Assay in all cases: radiometric filter-binding kinase assay
[1] = test system: RPS6KB1 (human), P23443 [T412E]
[2] = biological target: PKN2 (human) (UniProt Q16513)
[3] = biological target: PAK4 (human) (UniProt O96013)
[4] = biological target: PIM1 (human) (UniProt P11309)
[5] = biological target: HIPK1 (human) (UniProt Q86Z02)
[6] = biological target: DYRK2 (human) (UniProt Q92630)
[7] = biological target: EPHB3 (human) (UniProt P54753)
[8] = biological target: PRKACA (human) (UniProt P17612)
[9] = biological target: PDPK1 (human) (UniProt O15530); conditions: compound 10.0 µM
[10] = biological target: PAK6 (human) (UniProt Q9NQU5)
[11] = biological target: CHEK2 (human) (UniProt O96017)
[12] = test system: ROCK2 (rat); conditions: accession and sequence are those of the human protein
[13] = biological target: BTK (human) (UniProt Q06187)
[14] = biological target: RPS6KA5 KD1 KD2 (human) (UniProt O75582)
[15] = biological target: INSR (human) (UniProt P06213)
[16] = biological target: RIPK2 (human) (UniProt O43353)
[17] = biological target: MST4 (human) (UniProt Q9P289)
[18] = biological target: JAK2 JH1 JH2 (human) (UniProt O60674)
[19] = biological target: PLK1 (human) (UniProt P53350)
[20] = biological target: MAPK11 (human) (UniProt Q15759)
[21] = biological target: MAPK15 (human) (UniProt Q8TD08)
[22] = biological target: YES1 (human) (UniProt P07947)
[23] = biological target: TBK1 (human) (UniProt Q9UHD2)
[24] = biological target: EPHA2 (human) (UniProt P29317)
[25] = biological target: MAP2K1 (human) (UniProt Q02750)
[26] = biological target: DAPK1 (human) (UniProt P53355)
[27] = biological target: CLK2 (human) (UniProt P49760)
[28] = test system: PAK2 (human), Q13177 [T402E]
[29] = biological target: TTK (human) (UniProt P33981)
[30] = biological target: MAP2K6 (human) (UniProt P52564)
[31] = biological target: SRC (human) (UniProt P12931)
[32] = biological target: NUAK1 (human) (UniProt O60285)
[33] = biological target: NEK2 (human) (UniProt P51955)
[34] = biological target: MKNK1 (human) (UniProt Q9BUB5)
[35] = biological target: MAPK14 (human) (UniProt Q16539)

PIM1 (human), sequence (P11309 whole entry, looked up): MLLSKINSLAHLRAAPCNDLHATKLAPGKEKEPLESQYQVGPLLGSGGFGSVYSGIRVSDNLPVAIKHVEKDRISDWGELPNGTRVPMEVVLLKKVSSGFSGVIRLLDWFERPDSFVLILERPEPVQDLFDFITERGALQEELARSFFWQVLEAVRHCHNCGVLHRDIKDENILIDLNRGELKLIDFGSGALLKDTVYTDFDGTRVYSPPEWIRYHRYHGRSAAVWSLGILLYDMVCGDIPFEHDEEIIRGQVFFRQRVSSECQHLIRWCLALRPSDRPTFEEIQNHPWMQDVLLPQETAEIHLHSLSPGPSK
YES1 (human), sequence (P07947 whole entry, looked up): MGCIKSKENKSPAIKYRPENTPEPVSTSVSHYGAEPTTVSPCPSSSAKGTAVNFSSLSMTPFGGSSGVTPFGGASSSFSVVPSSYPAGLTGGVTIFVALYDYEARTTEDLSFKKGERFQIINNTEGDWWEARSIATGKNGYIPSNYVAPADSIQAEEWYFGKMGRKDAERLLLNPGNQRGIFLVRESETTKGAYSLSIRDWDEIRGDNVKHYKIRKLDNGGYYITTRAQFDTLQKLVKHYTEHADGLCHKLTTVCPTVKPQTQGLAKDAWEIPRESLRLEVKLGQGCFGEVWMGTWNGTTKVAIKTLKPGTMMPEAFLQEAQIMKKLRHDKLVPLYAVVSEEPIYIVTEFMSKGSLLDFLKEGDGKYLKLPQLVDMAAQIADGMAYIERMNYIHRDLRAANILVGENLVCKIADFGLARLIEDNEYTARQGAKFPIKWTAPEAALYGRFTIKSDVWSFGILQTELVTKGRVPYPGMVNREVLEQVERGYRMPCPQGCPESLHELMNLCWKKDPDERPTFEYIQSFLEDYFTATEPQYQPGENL
PDPK1 (human), sequence (O15530 whole entry, looked up): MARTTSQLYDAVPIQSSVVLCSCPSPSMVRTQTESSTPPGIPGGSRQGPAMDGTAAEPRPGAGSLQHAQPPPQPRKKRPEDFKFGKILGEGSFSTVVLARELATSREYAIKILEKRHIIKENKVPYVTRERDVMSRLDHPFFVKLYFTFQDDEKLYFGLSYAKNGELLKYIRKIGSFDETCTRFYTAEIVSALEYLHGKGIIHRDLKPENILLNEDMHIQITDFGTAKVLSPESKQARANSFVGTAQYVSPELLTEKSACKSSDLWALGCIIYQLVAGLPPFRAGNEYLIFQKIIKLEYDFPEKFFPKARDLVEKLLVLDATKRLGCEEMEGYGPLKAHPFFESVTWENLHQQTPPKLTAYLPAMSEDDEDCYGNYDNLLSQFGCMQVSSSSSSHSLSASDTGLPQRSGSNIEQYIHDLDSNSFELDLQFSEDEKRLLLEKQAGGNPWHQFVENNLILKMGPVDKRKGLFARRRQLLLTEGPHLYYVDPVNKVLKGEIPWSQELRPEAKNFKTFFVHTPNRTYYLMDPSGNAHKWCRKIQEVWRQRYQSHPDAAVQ
RPS6KA5 KD1 KD2 (human), sequence (O75582 whole entry, looked up): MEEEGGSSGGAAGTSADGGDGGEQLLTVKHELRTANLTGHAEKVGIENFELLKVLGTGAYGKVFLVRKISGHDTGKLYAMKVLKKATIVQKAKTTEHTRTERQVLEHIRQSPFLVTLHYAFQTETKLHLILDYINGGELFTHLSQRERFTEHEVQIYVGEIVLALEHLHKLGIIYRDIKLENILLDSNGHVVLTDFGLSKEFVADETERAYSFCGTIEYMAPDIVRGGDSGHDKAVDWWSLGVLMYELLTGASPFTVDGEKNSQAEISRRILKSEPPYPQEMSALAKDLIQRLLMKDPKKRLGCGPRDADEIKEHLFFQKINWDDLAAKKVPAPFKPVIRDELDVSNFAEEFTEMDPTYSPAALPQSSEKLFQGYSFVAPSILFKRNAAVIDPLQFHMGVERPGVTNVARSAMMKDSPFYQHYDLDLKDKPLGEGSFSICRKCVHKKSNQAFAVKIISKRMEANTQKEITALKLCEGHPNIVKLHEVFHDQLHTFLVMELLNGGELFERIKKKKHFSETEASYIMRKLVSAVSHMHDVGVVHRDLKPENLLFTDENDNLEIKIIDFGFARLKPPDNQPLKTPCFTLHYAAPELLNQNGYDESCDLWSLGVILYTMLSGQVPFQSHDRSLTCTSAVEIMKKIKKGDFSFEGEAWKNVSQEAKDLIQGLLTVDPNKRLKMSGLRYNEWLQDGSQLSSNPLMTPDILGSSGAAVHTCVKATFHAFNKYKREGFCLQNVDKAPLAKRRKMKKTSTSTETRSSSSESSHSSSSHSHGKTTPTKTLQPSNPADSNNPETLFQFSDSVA
NUAK1 (human), sequence (O60285 whole entry, looked up): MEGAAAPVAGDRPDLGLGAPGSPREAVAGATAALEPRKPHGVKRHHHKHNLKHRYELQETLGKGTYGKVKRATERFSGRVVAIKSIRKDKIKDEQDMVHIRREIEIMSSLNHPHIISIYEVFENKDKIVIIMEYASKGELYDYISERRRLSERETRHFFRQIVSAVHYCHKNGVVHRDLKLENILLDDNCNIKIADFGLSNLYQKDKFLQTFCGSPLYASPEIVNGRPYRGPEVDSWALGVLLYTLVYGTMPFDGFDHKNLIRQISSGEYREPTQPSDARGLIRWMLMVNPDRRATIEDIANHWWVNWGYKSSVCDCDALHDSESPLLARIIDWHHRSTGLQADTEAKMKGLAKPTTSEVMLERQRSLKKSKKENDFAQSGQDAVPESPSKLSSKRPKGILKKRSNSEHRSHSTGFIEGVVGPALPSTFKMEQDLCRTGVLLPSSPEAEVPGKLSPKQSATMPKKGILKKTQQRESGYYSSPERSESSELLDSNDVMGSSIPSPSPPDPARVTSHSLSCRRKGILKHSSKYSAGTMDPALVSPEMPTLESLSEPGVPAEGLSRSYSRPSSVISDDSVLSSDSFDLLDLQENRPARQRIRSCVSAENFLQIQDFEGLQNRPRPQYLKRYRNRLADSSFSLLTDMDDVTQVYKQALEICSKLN
BTK (human), sequence (Q06187 whole entry, looked up): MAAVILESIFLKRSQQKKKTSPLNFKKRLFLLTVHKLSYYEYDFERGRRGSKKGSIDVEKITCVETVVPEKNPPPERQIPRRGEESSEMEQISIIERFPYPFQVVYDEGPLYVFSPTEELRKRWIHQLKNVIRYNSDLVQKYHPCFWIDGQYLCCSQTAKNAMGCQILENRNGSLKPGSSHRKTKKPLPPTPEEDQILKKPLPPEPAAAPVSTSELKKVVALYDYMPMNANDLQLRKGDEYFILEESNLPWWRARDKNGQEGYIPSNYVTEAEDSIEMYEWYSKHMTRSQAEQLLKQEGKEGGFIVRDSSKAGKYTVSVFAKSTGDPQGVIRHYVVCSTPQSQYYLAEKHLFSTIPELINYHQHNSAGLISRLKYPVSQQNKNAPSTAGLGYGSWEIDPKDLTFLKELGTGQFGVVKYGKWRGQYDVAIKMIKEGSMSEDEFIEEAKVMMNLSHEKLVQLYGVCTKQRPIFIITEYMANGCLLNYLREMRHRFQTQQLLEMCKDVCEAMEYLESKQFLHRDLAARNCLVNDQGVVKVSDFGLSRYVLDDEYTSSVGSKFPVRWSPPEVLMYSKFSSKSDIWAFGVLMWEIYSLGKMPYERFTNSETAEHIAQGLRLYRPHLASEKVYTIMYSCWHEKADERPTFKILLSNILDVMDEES
PKN2 (human), sequence (Q16513 whole entry, looked up): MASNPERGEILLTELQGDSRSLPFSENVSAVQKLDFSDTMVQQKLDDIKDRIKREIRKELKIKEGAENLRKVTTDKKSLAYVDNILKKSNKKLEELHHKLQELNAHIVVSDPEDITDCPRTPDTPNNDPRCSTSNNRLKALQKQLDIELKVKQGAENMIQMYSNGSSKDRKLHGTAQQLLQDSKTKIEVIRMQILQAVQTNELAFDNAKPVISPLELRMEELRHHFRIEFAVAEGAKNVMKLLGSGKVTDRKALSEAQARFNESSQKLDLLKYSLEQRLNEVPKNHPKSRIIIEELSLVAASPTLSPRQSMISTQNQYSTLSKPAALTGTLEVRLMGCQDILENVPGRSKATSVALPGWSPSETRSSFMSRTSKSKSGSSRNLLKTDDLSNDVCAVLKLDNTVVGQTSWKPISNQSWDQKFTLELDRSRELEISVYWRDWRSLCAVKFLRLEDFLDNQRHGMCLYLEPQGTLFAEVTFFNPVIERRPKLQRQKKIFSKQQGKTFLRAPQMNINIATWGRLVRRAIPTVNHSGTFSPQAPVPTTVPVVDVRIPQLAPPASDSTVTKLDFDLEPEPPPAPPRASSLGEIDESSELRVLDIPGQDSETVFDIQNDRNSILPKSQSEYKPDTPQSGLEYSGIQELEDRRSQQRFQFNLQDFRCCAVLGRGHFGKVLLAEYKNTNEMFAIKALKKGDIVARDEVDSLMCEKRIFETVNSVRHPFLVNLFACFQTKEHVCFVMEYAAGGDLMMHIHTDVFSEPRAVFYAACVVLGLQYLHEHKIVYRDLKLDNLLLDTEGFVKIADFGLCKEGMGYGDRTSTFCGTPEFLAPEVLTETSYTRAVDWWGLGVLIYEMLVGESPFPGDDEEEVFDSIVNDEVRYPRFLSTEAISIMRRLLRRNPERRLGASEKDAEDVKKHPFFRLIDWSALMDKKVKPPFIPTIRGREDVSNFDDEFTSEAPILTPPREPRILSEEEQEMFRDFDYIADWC
CLK2 (human), sequence (P49760 whole entry, looked up): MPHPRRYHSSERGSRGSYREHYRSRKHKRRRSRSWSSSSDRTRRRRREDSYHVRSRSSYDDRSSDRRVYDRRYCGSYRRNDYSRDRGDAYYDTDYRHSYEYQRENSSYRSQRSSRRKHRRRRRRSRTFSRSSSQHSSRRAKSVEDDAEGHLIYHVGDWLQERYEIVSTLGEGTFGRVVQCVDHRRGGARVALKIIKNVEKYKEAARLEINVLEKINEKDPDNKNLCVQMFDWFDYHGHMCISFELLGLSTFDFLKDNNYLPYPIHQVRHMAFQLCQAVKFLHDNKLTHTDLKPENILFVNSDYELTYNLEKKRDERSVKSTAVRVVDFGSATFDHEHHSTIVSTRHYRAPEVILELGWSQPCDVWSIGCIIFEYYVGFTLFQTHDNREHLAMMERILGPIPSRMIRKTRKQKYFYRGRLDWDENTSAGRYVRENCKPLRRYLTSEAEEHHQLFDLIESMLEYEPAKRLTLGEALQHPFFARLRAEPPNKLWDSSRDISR

For `O=C1c2ccccc2-c2n[nH]c3cccc1c23`, the residual activity ([1]; compound 1.0 µM) was 75%, the residual activity ([1]; compound 10.0 µM) was 30% and the residual activity ([2]; compound 1.0 µM) was 86%. It also gave a residual activity ([2]; compound 10.0 µM) of 64%, a residual activity ([3]; compound 1.0 µM) of 80% and a residual activity ([3]; compound 10.0 µM) of 25%. It also gave a residual activity ([4]; compound 1.0 µM) of 43%, a residual activity ([4]; compound 10.0 µM) of 15% and a residual activity ([5]; compound 1.0 µM) of 81%. The residual activity ([5]; compound 10.0 µM) was 27%, the residual activity ([6]; compound 1.0 µM) was 12% and the residual activity ([6]; compound 10.0 µM) was 2%. It also gave a residual activity ([7]; compound 1.0 µM) of 102%, a residual activity ([7]; compound 10.0 µM) of 49% and a residual activity ([8]; compound 1.0 µM) of 88%. For the same molecule, the residual activity ([8]; compound 10.0 µM) was 88%, the residual activity [9] was 33% and 37% and the residual activity ([10]; compound 1.0 µM) was 91%. The residual activity ([10]; compound 10.0 µM) was 54%, the residual activity ([11]; compound 1.0 µM) was 21% and the residual activity ([11]; compound 10.0 µM) was 5%. For the same molecule, the residual activity ([12]; compound 1.0 µM) was 75%, the residual activity ([12]; compound 10.0 µM) was 32% and the residual activity ([13]; compound 1.0 µM) was 95%. The residual activity ([13]; compound 10.0 µM) was 62%, the residual activity ([14]; compound 1.0 µM) was 75% and the residual activity ([14]; compound 10.0 µM) was 49%. The residual activity ([15]; compound 1.0 µM) was 89%, the residual activity ([15]; compound 10.0 µM) was 27% and the residual activity ([16]; compound 1.0 µM) was 80%. For the same molecule, the residual activity ([16]; compound 10.0 µM) was 48%, the residual activity ([17]; compound 1.0 µM) was 58% and the residual activity ([17]; compound 10.0 µM) was 17%. The residual activity ([18]; compound 1.0 µM) was 26%, the residual activity ([18]; compound 10.0 µM) was 6% and the residual activity ([19]; compound 1.0 µM) was 113%. For the same molecule, the residual activity ([19]; compound 10.0 µM) was 110%, the residual activity ([20]; compound 1.0 µM) was 102% and the residual activity ([20]; compound 10.0 µM) was 38%. It also gave a residual activity ([21]; compound 1.0 µM) of 39%, a residual activity ([21]; compound 10.0 µM) of 6% and a residual activity ([22]; compound 1.0 µM) of 71%. For the same molecule, the residual activity ([22]; compound 10.0 µM) was 33%, the residual activity ([23]; compound 1.0 µM) was 76% and the residual activity ([23]; compound 10.0 µM) was 41%. For the same molecule, the residual activity ([24]; compound 1.0 µM) was 78%, the residual activity ([24]; compound 10.0 µM) was 42% and the residual activity ([25]; compound 1.0 µM) was 67%. For the same molecule, the residual activity ([25]; compound 10.0 µM) was 26%, the residual activity ([26]; compound 1.0 µM) was 50% and the residual activity ([26]; compound 10.0 µM) was 37%. For the same molecule, the residual activity ([27]; compound 1.0 µM) was 16%, the residual activity ([27]; compound 10.0 µM) was 3% and the residual activity ([28]; compound 1.0 µM) was 92%. It also gave a residual activity ([28]; compound 10.0 µM) of 68%, a residual activity ([29]; compound 1.0 µM) of 74% and a residual activity ([29]; compound 10.0 µM) of 57%. The residual activity ([30]; compound 1.0 µM) was 80%, the residual activity ([30]; compound 10.0 µM) was 27% and the residual activity ([31]; compound 1.0 µM) was 81%. It also gave a residual activity ([31]; compound 10.0 µM) of 41%, a residual activity ([32]; compound 1.0 µM) of 38% and a residual activity ([32]; compound 10.0 µM) of 21%. It also gave a residual activity ([33]; compound 1.0 µM) of 129%, a residual activity ([33]; compound 10.0 µM) of 95% and a residual activity ([34]; compound 1.0 µM) of 83%. The residual activity ([34]; compound 10.0 µM) was 41%, the residual activity ([35]; compound 1.0 µM) was 94% and the residual activity ([35]; compound 10.0 µM) was 86%.

`Cc1nc(N)sc1-c1csc(Nc2cccnc2)n1` was tested, and the residual activity ([1]; compound 10.0 µM) was 64%, the residual activity ([2]; compound 10.0 µM) was 76% and the residual activity ([3]; compound 10.0 µM) was 74%. It also gave a residual activity ([4]; compound 10.0 µM) of 22%, a residual activity ([4]; compound 100.0 µM) of 6% and a residual activity ([5]; compound 10.0 µM) of 84%. For the same molecule, the residual activity ([6]; compound 10.0 µM) was 50%, the residual activity ([6]; compound 100.0 µM) was 8% and the residual activity ([7]; compound 10.0 µM) was 101%. The residual activity ([8]; compound 10.0 µM) was 91%, the residual activity [9] was 84% and 86% and the residual activity ([10]; compound 10.0 µM) was 84%. It also gave a residual activity ([11]; compound 10.0 µM) of 57%, a residual activity ([11]; compound 100.0 µM) of 10% and a residual activity ([12]; compound 10.0 µM) of 80%. For the same molecule, the residual activity ([13]; compound 10.0 µM) was 26%, the residual activity ([13]; compound 100.0 µM) was 38% and the residual activity ([14]; compound 10.0 µM) was 88%. It also gave a residual activity ([15]; compound 10.0 µM) of 34%, a residual activity ([15]; compound 100.0 µM) of 69% and a residual activity ([16]; compound 10.0 µM) of 52%. It also gave a residual activity ([16]; compound 100.0 µM) of 23%, a residual activity ([17]; compound 10.0 µM) of 96% and a residual activity ([18]; compound 10.0 µM) of 63%. It also gave a residual activity ([19]; compound 10.0 µM) of 35%, a residual activity ([19]; compound 100.0 µM) of 22% and a residual activity ([20]; compound 10.0 µM) of 96%. For the same molecule, the residual activity ([20]; compound 100.0 µM) was 87%, the residual activity ([21]; compound 10.0 µM) was 43% and the residual activity ([22]; compound 10.0 µM) was 77%. The residual activity ([23]; compound 10.0 µM) was 75%, the residual activity ([24]; compound 10.0 µM) was 103% and the residual activity ([25]; compound 10.0 µM) was 80%. It also gave a residual activity ([26]; compound 10.0 µM) of 71%, a residual activity ([27]; compound 10.0 µM) of 18% and a residual activity ([27]; compound 100.0 µM) of 3%. For the same molecule, the residual activity ([28]; compound 10.0 µM) was 89%, the residual activity ([29]; compound 10.0 µM) was 53% and the residual activity ([29]; compound 100.0 µM) was 35%. It also gave a residual activity ([30]; compound 10.0 µM) of 94%, a residual activity ([31]; compound 10.0 µM) of 91% and a residual activity ([32]; compound 10.0 µM) of 42%. It also gave a residual activity ([32]; compound 100.0 µM) of 11%, a residual activity ([33]; compound 10.0 µM) of 42% and a residual activity ([33]; compound 100.0 µM) of 14%. The residual activity ([34]; compound 10.0 µM) was 35%, the residual activity ([35]; compound 10.0 µM) was 91% and the residual activity ([35]; compound 100.0 µM) was 78%.
